Columns and labels:
[1] = Water intake of mice on administration of autoclaved DDS; conditions: male mice, at 4-day intervals for 3 months
[2] = system: blood creatine kinase level; test: Measurement of blood creatine kinase (CK) level; conditions: administered for 3 months
[3] = system: gastrocnemius (GA) and tibialis anterior (TA) muscle weight; test: Muscle weight of GA and TA; format: in vivo, C57BL/6J mice; conditions: aged mice (23-month-old and 30-month-old), female and male, 2 mg/kg, 3 months
Method: (§1) In order to separate muscle from the mice, the mice were anesthetized by injection with sodium pentobarbital (100 mg/kg bodyweight). One gastrocnemius (GA) and one tibialis anterior (TA) were carefully separated from the hindlimb of each mouse, so that the muscle was not damaged, and the weight of each of the separated muscles was measured.

[4] = system: mouse muscles (SOL and EDL); test: Measurement of tetanus isometric force; format: in vivo, C57BL/6J mice; conditions: SOL 150 Hz, 100V, 800 ms, EDL 100 Hz, 400 ms
From the text: In the muscle contraction stimulation system, SOL muscle formed the peak plateau under the conditions of 150 Hz, 100 V and 800 ms. […] In this Example, the mice used in Example 6 were used. The mice were rested for a sufficient time after twitch stimulation, and then tetanic stimulation was applied to the mice. As stimulation at the time of formation of a stable graph in which the peak forms the plateau, 150 Hz (100V, 800 ms stimulation time) was used for Soleus, and 100 Hz (100V, 400 ms stimulation time) was used for EDL. Each of these values was used as the peak Isometric force for each muscle, and the results are plotted in unit of mN and shown in FIG. 9.

bacterial growth = test: Bacterial growth inhibitory activity of autoclaved DDS; format: cell-based; conditions: DDS added to bacterial medium and autoclaved, compared with control
Method: Specifically, DDS was added to a bacterial medium and autoclaved, and then compared with a control.

grip strength of mice = test: Measurement of grip strength; format: in vivo, C57BL/6J mice; conditions: 2 mg/kg, 3 months
Method: To measure the grip strength of the mice, a grip strength meter (Bioseb) was used. The grip strength of the mice was measured by positioning the mice to grab the grid plate with the forelimbs, slowly pulling the tail in a horizontal direction, and determining the value at the time at which the forelimbs were detached from the grid.

Caenorhabditis elegans = conditions: reported; cited from earlier work
[5] = system: soleus (SOL) and extensor digitorum longus (EDL) muscle weight; test: Muscle weight of SOL and EDL; format: in vivo, C57BL/6J mice; conditions: aged mice (23-month-old and 30-month-old), female and male, 2 mg/kg, 3 months
Method: as §1, with “body weight).” for “bodyweight).”, “soleus (SOL)” for “gastrocnemius (GA)”, “extensor digitorum longus (EDL)” for “tibialis anterior (TA)”

[6] = mouse, in vivo, 2 mg/kg
[7] = system: mouse muscles (SOL and EDL); test: Measurement of twitch isometric force; format: in vivo, C57BL/6J mice; conditions: SOL and EDL separated from treated mice, 0.2 Hz (100V) twitch stimulation
Method: One end of the tendons was anchored to a tissue bath, which was filled with Ringer's solution and to which oxygen was smoothly supplied, and the other end was anchored to a FT03 isometric force transducer (Grass instruments, West Warwick, USA). The twitch and tetanus of the muscle were adjusted by the intensity of electric stimulation. The muscle was stabilized in Ringer's solution for 10 minutes, and then an experiment for muscle contraction function was carried out. To maximize the function of the muscle, the length of the muscle showing the highest response at 0.2 Hz (100V), twitch stimulation, was measured and assigned as Lo.

[8] = female mice, vs negative control

| Compound | water intake [1] | blood creatine kinase level [2, 8] | weight of GA [3] | weight of TA [3] | blood creatine kinase level ([2]; 18-month-old or older mice, 2 mg/kg) | muscle tetanic force (reduced with aging) [4] | bacterial growth inhibitory activity (bacterial growth) | grip strength (grip strength of mice; 18-month-old female mice) | grip strength (grip strength of mice; 23-month-old or older female mice) | grip strength (grip strength of mice; male mice) | increase of life span of Caenorhabditis elegans (Caenorhabditis elegans) | weight of EDL [5] | weight of SOL [5] | water intake vs control group [6] | muscle twitch force (reduced with aging) [7] |
| --- | --- | --- | --- | --- | --- | --- | --- | --- | --- | --- | --- | --- | --- | --- | --- |
| CC(C)(C)NCC(O)c1cc(Cl)c(N)c(Cl)c1 (stereo not shown) [Clenbuterol] | increased | equal to or higher than that of the negative control |  |  |  |  |  |  |  |  |  |  |  |  |  |
| Nc1ccc(S(=O)(=O)c2ccc(N)cc2)cc1 [DDS, diaminodiphenylsulfone] |  | significantly reduced | restored | restored | effectively decreases | effectively restored | maintained | not distinct | significantly restored | increased | 20-30% | restored | restored | did not significantly differ | effectively restored |

From US9226905B2 (SAMSUNG ELECTRONICS CO., LTD., priority 2011, dated 2016)
